According to US20250288561A1, “NEZULCITINIB FOR DELIVERY BY NEBULIZED ORAL INHALATION” (THERAVANCE BIOPHARMA R&D IP, LLC, priority 2022, published 2025):

What was measured:
[1] = Phase 1 open-label study: safety and tolerability of single inhaled nezulcitinib doses under supplemental oxygenation scenarios; assay type: in vivo, human
Description: Part B: assessed the safety and tolerability of nezulcitinib following single inhaled doses administered in the setting of various supplemental oxygenation scenarios in healthy participants.
Safety was monitored through physical examinations including, at a minimum, examination of respiratory, cardiovascular, and gastrointestinal systems, with the option for further focused examination of additional systems as necessary based on reported symptoms/AEs, vital signs, 12-lead safety ECGs, spirometry, body weight monitoring, pulse oximetry, clinical laboratory tests (including, but not limited to, hematology, clinical chemistry profile, coagulation, and urinalysis), and AEs.
AEs were coded using the most current version of Medical Dictionary for Regulatory Activities (MedDRA®).
Summaries of administration-emergent adverse events (AEAEs) were presented by SOC, preferred term, and the frequency and percentage of participants reporting each observed event. The frequency of participants who experience AEAEs was summarized overall and by study part and administration. AEs were also summarized by relationship to administration (study drug) and severity.
All clinical laboratory results, 12-lead safety ECGs, spirometry measurements, pulse oximetry, vital signs measurements, and their change from baseline, were summarized by study part, administration, and time point of collection.
Safety (i.e., physical examinations, vital signs, 12-lead safety ECGs, spirometry, clinical laboratory tests, and AEs) were assessed throughout the study; blood, urine, and expired air samples were collected for safety assessments. Blood oxygenation levels were monitored via pulse oximetry prior to and during administration of supplemental oxygen. Discontinued participants were not replaced.

[2] = Earlier phase 1 clinical trial, nebulized inhalation: plasma pharmacokinetics; assay type: in vivo, human; settings: for maximal plasma exposure, fold lower than the protein-adjusted JAK IC50: inhaled
Experimental: (§1) Compound 1 was evaluated in a phase 1 clinical trial and dosed in humans through nebulized inhalation at 1 mg, 3 mg, and 10 mg for up to 7 days. […] The pharmacokinetics of inhaled compound 1 are consistent with low plasma exposures after inhaled administration. […] Additionally, absolute NK cell counts were evaluated after multiple-dosing to assess the potential for systemic pharmacologic effects associated with JAK inhibition by compound 1. […] The lack of reduction in NK cell counts is also consistent with the lack of systemic JAK inhibition. […] Other systemically mediated hematological changes associated with JAK inhibition, including neutrophil and hemoglobin reductions as well as lipid changes, were not observed with inhaled administration of compound 1.
The selected dose of 3 mg in the present study was consistent with the dose in a recently completed Phase 2 study. In addition, the 3 mg dose ensured adequate characterization of the nezulcitinib PK profile. Dose levels up to 9 mg of nezulcitinib were also evaluated (Administration D2). This dose level was within the range of doses tested previously (up to 10 mg of nezulcitinib) in healthy participants and those with COVID-19 in previous clinical studies.

NK cells = assay: Earlier phase 1 clinical trial: absolute NK cell counts after multiple dosing; assay type: in vivo, human; settings: any dose level (1, 3, or 10 mg)
Experimental: as §1

JAK1 = JAK1 (Homo sapiens, UniProt P23458); assay: JAK enzyme inhibition; assay type: biochemical
Chain of JAK1 (P23458 whole entry): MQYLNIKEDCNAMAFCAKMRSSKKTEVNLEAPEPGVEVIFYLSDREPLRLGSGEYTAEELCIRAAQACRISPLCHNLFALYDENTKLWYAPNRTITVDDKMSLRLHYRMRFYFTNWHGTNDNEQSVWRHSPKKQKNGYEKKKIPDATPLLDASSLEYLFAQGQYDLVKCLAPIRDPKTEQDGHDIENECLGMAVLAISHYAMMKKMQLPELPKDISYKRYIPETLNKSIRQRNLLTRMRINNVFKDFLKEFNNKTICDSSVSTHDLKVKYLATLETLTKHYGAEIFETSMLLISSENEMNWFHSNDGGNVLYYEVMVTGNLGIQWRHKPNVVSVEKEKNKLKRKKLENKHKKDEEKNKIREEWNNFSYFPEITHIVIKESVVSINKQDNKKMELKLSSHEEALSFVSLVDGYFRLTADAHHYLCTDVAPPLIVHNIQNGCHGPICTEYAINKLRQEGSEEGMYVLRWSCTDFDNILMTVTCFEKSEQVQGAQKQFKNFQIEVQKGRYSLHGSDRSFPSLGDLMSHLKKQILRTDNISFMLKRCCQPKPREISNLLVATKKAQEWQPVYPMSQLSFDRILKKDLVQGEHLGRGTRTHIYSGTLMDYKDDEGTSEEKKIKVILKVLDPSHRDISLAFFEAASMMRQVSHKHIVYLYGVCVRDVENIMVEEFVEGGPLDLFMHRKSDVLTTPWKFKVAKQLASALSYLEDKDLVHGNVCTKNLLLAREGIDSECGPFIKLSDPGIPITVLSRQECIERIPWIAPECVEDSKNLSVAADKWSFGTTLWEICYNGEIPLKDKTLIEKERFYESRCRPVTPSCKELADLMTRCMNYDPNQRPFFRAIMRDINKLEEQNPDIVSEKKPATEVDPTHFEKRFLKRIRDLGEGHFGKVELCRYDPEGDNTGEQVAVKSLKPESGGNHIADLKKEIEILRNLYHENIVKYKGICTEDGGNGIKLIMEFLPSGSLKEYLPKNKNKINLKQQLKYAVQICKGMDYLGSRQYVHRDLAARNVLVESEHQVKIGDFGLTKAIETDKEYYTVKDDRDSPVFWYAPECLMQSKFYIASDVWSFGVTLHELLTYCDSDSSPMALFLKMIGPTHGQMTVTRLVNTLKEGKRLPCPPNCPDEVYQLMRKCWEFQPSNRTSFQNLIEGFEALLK

JAK2 = JAK2 (Homo sapiens, UniProt O60674); assay: JAK enzyme inhibition; assay type: biochemical
Chain of JAK2 (O60674 whole entry): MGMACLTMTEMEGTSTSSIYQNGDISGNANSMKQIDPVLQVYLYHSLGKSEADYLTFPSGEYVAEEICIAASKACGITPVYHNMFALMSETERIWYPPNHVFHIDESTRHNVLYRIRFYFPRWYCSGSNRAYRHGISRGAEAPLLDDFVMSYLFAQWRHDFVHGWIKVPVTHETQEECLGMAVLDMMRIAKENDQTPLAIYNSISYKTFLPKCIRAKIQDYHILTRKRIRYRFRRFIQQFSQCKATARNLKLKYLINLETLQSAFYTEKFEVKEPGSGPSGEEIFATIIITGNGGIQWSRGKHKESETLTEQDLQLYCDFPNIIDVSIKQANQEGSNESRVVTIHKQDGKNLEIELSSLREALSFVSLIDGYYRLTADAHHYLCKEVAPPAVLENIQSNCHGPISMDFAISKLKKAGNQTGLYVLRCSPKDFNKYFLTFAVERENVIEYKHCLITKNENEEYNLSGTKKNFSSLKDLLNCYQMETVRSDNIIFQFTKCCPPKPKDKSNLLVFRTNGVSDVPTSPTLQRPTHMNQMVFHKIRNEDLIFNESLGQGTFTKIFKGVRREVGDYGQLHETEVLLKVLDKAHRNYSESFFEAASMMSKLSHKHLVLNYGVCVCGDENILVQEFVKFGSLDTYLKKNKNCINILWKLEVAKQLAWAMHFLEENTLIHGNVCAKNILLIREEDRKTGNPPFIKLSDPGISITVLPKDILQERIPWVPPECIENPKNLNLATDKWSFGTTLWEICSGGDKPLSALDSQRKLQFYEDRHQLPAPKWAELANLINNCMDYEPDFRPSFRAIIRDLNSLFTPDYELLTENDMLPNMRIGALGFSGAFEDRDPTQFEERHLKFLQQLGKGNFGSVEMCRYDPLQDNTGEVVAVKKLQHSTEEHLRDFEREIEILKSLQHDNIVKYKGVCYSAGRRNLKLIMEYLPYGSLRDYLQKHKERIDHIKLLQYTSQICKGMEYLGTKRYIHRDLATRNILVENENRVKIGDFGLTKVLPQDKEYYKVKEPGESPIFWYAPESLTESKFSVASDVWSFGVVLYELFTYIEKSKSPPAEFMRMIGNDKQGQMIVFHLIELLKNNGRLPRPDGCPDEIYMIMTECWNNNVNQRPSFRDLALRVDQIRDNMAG

JAK3 = biological target: T1, JAK3 (Homo sapiens, UniProt P52333); assay: JAK enzyme inhibition; assay type: biochemical
T1 sequence (P52333 1-1124): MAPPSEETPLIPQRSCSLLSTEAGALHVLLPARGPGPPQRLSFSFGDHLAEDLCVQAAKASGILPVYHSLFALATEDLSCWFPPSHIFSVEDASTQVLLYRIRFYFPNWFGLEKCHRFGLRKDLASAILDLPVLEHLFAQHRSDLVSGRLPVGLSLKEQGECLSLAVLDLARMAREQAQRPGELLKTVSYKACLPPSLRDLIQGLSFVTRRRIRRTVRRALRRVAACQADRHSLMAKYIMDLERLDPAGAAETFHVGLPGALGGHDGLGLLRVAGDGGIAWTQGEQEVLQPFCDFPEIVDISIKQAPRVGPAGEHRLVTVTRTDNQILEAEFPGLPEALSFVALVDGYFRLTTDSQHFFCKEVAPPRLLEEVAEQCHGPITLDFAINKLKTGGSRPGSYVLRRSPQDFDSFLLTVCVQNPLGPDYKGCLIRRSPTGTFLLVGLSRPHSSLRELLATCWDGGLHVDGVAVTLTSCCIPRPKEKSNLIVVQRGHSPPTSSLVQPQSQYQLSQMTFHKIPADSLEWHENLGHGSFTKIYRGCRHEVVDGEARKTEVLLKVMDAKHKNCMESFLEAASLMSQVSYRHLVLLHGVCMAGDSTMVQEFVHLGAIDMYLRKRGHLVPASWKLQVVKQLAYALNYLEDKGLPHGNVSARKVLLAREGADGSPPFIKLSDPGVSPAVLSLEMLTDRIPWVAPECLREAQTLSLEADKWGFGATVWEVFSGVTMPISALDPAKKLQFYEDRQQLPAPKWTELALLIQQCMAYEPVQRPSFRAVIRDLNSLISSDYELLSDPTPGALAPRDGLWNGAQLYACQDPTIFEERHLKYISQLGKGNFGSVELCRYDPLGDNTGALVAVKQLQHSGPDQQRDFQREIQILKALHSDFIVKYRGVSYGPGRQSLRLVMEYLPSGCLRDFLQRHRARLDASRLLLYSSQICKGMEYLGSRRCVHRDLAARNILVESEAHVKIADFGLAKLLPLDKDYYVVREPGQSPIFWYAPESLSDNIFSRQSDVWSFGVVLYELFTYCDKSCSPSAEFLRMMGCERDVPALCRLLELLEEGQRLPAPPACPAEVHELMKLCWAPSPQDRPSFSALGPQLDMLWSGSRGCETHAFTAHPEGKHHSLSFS

TYK2 = TYK2 (Homo sapiens, UniProt P29597); assay: JAK enzyme inhibition; assay type: biochemical
Chain of TYK2 (P29597 whole entry): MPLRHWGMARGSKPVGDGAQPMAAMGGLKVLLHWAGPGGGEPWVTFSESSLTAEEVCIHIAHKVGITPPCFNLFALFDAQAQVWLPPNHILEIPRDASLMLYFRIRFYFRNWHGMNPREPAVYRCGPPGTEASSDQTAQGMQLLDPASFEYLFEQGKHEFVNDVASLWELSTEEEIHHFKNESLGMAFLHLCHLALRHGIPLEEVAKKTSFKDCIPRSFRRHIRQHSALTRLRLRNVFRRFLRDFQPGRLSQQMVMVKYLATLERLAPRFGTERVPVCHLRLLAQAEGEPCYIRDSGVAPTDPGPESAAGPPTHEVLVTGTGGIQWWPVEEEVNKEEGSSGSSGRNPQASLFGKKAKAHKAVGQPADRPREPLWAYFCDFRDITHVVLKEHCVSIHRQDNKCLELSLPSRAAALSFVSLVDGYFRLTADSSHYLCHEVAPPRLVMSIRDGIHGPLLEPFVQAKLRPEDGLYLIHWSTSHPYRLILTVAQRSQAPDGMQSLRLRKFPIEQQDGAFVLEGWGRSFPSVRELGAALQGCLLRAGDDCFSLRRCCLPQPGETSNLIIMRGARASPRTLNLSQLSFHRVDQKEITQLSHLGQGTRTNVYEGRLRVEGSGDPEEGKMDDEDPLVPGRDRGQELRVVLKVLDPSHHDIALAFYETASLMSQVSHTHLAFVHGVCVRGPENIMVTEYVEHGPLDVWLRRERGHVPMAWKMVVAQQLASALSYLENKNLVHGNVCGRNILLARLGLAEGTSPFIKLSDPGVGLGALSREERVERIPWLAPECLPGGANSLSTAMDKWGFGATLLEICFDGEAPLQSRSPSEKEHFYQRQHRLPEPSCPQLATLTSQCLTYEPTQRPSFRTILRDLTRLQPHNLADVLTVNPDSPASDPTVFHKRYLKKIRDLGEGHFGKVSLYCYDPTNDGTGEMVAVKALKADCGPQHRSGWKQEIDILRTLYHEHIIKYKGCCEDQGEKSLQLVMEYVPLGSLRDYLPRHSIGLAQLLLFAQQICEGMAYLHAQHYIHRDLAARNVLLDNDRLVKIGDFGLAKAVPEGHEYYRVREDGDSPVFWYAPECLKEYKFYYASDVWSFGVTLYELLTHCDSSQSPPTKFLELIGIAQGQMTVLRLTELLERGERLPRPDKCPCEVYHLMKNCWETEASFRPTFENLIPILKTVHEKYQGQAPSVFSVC

Sulfation metabolism = assay type: in vitro ADME
Abl2 = Abl2 (Homo sapiens, UniProt P42684); assay: Abelson kinase inhibition; assay type: biochemical
Chain of Abl2 (P42684 whole entry): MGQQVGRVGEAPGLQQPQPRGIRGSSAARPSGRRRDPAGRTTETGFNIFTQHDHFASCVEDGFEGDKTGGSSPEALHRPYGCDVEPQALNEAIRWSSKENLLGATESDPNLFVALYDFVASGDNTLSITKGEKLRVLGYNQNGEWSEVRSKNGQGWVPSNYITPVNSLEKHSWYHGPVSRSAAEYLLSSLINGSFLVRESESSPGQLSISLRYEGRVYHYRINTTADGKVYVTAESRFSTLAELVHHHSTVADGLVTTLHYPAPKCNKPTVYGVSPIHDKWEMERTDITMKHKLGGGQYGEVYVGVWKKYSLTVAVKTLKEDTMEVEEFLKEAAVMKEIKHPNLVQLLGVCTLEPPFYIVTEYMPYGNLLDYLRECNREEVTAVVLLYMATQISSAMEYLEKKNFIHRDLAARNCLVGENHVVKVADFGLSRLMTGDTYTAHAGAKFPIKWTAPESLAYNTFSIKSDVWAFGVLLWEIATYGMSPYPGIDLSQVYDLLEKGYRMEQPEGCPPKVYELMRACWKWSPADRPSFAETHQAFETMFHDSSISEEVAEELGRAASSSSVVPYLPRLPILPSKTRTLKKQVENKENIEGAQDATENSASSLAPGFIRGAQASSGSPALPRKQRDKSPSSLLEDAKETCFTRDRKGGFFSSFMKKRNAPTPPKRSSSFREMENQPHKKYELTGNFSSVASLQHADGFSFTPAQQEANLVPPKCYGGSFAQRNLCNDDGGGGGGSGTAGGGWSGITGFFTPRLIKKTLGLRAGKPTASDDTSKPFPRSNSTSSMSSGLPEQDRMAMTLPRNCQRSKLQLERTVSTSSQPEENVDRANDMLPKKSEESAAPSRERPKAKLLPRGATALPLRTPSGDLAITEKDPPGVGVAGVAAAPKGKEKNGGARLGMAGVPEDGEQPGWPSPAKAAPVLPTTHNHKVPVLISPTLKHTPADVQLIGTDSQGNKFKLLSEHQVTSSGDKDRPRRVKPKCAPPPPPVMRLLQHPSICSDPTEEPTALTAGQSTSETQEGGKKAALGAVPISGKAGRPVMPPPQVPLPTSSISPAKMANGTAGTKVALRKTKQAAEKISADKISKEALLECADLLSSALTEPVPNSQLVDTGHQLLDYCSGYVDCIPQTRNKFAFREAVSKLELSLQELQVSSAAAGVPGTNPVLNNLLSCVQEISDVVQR

CCc1cc(O)ccc1-c1ccc2c(-c3nc4c([nH]3)CN(C(C)C)[C@H](C(=O)N3CC(N(C)C)C3)C4)n[nH]c2c1 [Compound 1, (S)-(3-(dimethylamino)azetidin-1-yl)(2-(6-(2-ethyl-4-hydroxyphenyl)-1H-indazol-3-yl)-5-isopropyl-4,5,6,7-tetrahydro-3H-imidazo[4,5-c]pyridin-6-yl)methanone]
adverse events, subjects ([1]; 2 of 14 subjects, nasal congestion, epistaxis, considered not related to study drug): 14.3% | safety laboratory measures, electrocardiograms, vital signs, pulse oximetry, spirometry ([1]; all administrations): no clinically relevant changes | severity of adverse events ([1]; all adverse events): mild severity | maximal plasma exposure, fold lower than the protein-adjusted JAK IC50 ([2]; dose level 3 mg): about 20 fold | maximal plasma exposure, fold lower than the protein-adjusted JAK IC50 ([2]; dose level 10 mg): about 7 fold | plasma Cmax relative to the binding-corrected JAK IC50 ([2]; nebulized inhalation at 1 mg, 3 mg and 10 mg for up to 7 days): well under the binding-corrected JAK IC50 | dose proportionality of systemic exposure (AUC0-24) and Cmax ([2]; single and multiple doses, 1 to 10 mg): increased in a dose proportional manner | absolute NK cell counts relative to baseline (NK cells): No reductions in NK cells were observed | inhibition of JAK1 (JAK1): potent inhibitor | inhibition of JAK2 (JAK2): potent inhibitor | inhibition of JAK3 (JAK3): potent inhibitor | inhibition of TYK2 (TYK2): potent inhibitor | sulfation metabolism compared to corresponding fluorinated analog (Sulfation metabolism): significantly less sulfation metabolism | inhibition of Abl2 (Abl2): potently inhibit
